Data as given in ChEMBL document CHEMBL6109120, “Discovery of Novel SIK2/3 Inhibitors for the Potential Treatment of MEF2C+ Acute Myeloid Leukemia (AML)” (J Med Chem, 2025).

How the values were obtained:
[1] = target: Mast/stem cell growth factor receptor Kit (Homo sapiens, UniProt P10721); test: Binding affinity to human KIT by KINOMEscan assay
[2] = target: Voltage-gated inwardly rectifying potassium channel KCNH2 (Homo sapiens, UniProt Q12809); test: Inhibition of hERG expressed in HEK cells assessed as K+ tail current by whole-cell electrophysiology; assay type: toxicity, cell-based
[3] = target: T1, Serine/threonine-protein kinase ULK1 (Homo sapiens, UniProt O75385)
T1 sequence (O75385 whole entry): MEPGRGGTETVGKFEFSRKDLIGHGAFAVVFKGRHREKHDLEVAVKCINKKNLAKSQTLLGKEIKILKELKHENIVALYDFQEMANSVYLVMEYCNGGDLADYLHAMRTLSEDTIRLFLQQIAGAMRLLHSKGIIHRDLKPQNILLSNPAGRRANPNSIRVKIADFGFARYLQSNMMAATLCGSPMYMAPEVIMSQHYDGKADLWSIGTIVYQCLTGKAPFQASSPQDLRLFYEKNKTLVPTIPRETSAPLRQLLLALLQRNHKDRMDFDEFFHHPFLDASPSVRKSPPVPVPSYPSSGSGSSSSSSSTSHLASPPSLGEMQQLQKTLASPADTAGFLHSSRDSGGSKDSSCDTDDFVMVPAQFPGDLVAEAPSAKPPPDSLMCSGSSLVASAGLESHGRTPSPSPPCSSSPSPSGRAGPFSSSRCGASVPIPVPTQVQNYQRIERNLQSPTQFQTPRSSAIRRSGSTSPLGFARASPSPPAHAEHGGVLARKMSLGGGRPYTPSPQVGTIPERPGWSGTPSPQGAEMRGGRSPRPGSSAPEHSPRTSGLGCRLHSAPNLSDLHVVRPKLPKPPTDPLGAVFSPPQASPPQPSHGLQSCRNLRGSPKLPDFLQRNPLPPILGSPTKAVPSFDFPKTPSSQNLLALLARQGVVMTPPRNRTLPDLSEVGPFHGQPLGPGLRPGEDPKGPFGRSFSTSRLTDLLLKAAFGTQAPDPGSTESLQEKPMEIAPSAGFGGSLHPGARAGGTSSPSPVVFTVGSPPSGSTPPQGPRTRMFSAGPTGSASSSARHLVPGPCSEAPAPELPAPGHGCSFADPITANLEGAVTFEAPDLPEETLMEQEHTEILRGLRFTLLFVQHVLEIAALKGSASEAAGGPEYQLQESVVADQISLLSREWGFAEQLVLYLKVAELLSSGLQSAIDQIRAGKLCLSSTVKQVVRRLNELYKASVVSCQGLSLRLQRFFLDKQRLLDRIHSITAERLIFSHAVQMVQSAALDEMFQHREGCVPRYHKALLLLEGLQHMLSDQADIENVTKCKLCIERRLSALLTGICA
Description: Binding affinity to human ULK1 by KINOMEscan assay

[4] = target: T2, Dual specificity mitogen-activated protein kinase kinase 5 (Homo sapiens, UniProt Q13163)
T2 sequence (Q13163 whole entry): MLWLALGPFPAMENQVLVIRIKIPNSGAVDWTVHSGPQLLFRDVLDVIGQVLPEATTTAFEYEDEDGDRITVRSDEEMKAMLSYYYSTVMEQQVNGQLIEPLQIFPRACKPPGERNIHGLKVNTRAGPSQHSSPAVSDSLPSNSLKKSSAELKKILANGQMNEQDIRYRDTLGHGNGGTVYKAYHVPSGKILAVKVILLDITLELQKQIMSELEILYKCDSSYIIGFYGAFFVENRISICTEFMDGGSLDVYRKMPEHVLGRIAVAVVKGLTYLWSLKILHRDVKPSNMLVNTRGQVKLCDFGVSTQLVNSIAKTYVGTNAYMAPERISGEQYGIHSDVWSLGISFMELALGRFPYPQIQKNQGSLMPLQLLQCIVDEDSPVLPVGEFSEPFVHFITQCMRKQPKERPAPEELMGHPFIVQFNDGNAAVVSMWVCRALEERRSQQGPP
Description: Binding affinity to human MEK5 by KINOMEscan assay

[5] = target: T3, Cytochrome P450 1A2 (Homo sapiens, UniProt P05177); test: Inhibition of CYP1A2 in human liver microsomes assessed as Phenacetin O-deethylation reaction measured after 30 mins by LC/MS/MS analysis; assay type: ADME, Microsome
T3 sequence (P05177 whole entry): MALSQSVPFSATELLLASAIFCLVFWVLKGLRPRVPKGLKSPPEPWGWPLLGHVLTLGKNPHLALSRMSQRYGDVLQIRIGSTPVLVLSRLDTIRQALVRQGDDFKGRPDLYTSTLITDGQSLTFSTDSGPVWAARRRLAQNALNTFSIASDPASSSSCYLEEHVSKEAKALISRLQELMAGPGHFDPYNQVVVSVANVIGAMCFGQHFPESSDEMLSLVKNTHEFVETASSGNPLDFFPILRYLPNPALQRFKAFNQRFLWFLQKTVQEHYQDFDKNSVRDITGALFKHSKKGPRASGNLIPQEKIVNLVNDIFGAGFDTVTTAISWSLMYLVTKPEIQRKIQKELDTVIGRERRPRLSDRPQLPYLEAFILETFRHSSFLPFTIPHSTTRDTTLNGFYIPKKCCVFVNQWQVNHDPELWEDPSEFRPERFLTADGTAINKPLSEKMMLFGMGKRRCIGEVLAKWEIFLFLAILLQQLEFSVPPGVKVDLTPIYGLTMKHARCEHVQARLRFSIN

[6] = target: Cytochrome P450 2C9 (Homo sapiens, UniProt P11712); test: Inhibition of CYP2C9 in human liver microsomes assessed as diclofenac 4-hydroxylation reaction measured after 30 mins by LC/MS/MS analysis; assay type: ADME, Microsome
[7] = target: MAP kinase-interacting serine/threonine-protein kinase 2 (Homo sapiens, UniProt Q9HBH9); test: Binding affinity to human MKNK2 by KINOMEscan assay
MAP kinase-interacting serine/threonine-protein kinase 2, sequence (Q9HBH9 whole entry): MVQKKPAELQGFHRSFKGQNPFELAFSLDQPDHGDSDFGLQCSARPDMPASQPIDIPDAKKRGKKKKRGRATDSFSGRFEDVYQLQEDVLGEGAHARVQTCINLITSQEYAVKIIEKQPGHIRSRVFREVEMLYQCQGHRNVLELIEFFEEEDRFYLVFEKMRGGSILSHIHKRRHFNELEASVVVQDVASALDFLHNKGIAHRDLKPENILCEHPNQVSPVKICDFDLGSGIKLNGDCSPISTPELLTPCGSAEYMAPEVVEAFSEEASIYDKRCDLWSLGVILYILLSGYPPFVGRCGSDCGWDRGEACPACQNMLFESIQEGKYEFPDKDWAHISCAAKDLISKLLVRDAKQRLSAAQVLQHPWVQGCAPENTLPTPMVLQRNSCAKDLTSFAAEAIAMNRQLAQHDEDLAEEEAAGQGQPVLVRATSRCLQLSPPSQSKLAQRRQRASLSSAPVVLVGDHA

Voltage-gated inwardly rectifying potassium channel KCNH2, sequence (Q12809 whole entry): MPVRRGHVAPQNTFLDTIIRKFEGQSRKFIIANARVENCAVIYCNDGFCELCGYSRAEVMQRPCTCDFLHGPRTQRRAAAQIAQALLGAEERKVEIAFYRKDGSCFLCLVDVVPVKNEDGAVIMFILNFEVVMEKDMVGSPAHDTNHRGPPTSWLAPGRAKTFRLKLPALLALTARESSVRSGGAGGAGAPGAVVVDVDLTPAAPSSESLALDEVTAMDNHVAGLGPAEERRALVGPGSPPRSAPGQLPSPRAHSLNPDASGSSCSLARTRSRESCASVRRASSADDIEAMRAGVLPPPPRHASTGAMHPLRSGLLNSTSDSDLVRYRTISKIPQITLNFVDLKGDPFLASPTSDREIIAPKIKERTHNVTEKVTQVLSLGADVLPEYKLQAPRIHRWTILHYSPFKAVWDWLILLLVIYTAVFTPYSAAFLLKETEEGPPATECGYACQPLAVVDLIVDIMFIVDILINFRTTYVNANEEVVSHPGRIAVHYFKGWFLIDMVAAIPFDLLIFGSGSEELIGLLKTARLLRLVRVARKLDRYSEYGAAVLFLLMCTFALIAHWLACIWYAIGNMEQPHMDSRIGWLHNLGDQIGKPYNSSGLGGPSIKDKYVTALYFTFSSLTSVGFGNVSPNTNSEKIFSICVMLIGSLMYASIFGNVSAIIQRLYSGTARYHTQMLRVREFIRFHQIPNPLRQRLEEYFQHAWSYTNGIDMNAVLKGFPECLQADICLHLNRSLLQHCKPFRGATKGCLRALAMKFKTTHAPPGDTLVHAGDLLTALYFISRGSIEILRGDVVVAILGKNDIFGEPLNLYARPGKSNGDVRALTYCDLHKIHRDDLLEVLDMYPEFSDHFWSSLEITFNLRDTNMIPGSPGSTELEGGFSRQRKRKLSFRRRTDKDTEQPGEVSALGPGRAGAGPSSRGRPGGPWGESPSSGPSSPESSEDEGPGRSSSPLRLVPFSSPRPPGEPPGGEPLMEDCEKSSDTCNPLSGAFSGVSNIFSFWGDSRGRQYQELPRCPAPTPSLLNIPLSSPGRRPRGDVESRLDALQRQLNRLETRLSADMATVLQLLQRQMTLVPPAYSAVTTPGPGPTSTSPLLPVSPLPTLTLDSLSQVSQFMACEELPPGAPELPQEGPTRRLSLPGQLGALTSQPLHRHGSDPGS
Mast/stem cell growth factor receptor Kit, sequence (P10721 whole entry): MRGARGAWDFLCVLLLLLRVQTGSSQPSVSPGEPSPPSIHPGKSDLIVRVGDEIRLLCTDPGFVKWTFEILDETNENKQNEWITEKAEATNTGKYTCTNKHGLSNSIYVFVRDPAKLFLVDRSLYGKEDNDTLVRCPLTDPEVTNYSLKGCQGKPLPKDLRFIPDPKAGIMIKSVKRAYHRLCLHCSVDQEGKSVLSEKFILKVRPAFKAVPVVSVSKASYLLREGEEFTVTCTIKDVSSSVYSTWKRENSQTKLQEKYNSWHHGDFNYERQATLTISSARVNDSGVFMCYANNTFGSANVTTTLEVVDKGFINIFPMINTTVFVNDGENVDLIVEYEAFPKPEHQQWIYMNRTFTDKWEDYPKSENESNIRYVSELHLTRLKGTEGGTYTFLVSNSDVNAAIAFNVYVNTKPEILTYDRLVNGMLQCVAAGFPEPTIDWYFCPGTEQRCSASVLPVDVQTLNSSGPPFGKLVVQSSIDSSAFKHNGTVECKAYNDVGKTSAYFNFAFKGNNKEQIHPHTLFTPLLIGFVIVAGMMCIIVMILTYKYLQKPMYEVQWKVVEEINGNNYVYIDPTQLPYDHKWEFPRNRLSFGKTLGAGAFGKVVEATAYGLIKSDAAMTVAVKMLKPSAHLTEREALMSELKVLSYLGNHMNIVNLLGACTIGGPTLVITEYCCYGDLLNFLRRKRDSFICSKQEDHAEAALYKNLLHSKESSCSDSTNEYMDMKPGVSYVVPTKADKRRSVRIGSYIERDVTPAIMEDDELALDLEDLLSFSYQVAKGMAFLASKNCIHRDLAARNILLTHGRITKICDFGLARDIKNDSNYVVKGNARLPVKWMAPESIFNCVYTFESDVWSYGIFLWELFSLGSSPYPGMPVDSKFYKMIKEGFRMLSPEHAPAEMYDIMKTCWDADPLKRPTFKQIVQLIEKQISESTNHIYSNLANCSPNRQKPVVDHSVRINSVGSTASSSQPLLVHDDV
Cytochrome P450 2C9, sequence (P11712 whole entry): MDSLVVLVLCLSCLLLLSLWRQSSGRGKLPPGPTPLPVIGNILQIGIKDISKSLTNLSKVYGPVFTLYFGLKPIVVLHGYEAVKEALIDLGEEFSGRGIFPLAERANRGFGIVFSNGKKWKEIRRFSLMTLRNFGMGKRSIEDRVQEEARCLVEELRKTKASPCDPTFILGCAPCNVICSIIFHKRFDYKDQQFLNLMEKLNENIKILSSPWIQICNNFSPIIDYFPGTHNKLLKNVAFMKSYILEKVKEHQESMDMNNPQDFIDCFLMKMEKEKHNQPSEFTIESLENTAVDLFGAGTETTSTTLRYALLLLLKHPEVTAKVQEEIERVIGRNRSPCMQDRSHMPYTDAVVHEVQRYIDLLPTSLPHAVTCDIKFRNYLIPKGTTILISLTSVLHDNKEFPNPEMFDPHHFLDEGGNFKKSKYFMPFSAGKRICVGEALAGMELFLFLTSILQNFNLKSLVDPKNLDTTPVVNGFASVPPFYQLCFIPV

COc1nc(-c2cc(-c3cnn(C)c3)cnc2N)cc2c1C(=O)N(CC(F)(F)F)CC2
IC50 [1]: 0.594 µM
inhibition (INH) [2]: 34%
IC50 [3]: 0.586 µM
IC50 [4]: 2.65 µM
IC50 [5]: > 50 µM
IC50 [6]: > 50 µM
IC50 [7]: 0.015 µM
